Measured values: US20120122727A1, “IN VITRO METHOD FOR PREDICTING WHETHER A COMPOUND IS GENOTOXIC IN VIVO” (priority 2009, published 2012)

Experiments:
[1] = tested on: primary mouse hepatocytes
[2] = tested on: primary mouse hepatocytes; test: Gene expression in primary mouse hepatocytes, GTX vs non-GTX (four-gene classifier, 24 h)
[3] = tested on: primary mouse hepatocytes; test: Gene expression (Affymetrix Mouse Genome 430 2.0) in primary mouse hepatocytes, true vs false GTX, 24 h and 48 h

Mitomycin C [MitC]
Gene expression data AF204959 (Cyp3a25 /// LOC622249) [1]: 0.8169
score 1700007K13RIK [2]: 1
score DDIT4L [2]: 1
score GAS2L3 [2]: 1
score SPC25 [2]: 1
Gene expression AA561726 average [3]: −4.372
Gene expression AF000969 average [3]: −3.3606
Gene expression AF022072 average [3]: −3.37
Gene expression AF033112 average [3]: 2.219
Gene expression AF055573 average [3]: −2.916
Gene expression AF069954 average [3]: 2.26
Gene expression AF297615 average [3]: 1.841
Gene expression AF335325 average [3]: 1.755
Gene expression AI594683 average [3]: 4.611
Gene expression AI747296 average [3]: −2.056
Gene expression AK005731 average [3]: 6.089
Gene expression AK007854 average [3]: 1.5
Gene expression AK010447 average [3]: −1.6388
Gene expression AK010738 average [3]: 1.98
Gene expression AK014608 average [3]: 2.8746
Gene expression AK017734 average [3]: 1.835
Gene expression AK018383 average [3]: 0.994
Gene expression AK019979 average [3]: −3.757
Gene expression AV095209 average [3]: −2.78
Gene expression AV141095 average [3]: −2.411
Gene expression AV173869 average [3]: −2.2889
Gene expression AV216768 average [3]: −4.149
Gene expression AV219418 average [3]: 4.168
Gene expression AV221299 average [3]: −3.71
Gene expression AV246296 average [3]: 1.4788
Gene expression AV251625 average [3]: 2.477
Gene expression AV254764 average [3]: 1.411
Gene expression AV327248 average [3]: 4.918
Gene expression BB009155 average [3]: 2.9201
Gene expression BB027848 average [3]: 1.879
Gene expression BB043558 average [3]: 2.332
Gene expression BB046347 average [3]: 1.35
Gene expression BB140436 average [3]: −1.601
Gene expression BB204486 average [3]: −4.144
Gene expression BB223872 average [3]: 2.201
Gene expression BB246912 average [3]: −1.866
Gene expression BB275142 average [3]: 2.282
Gene expression BB458460 average [3]: −2.7207
Gene expression BB463610 average [3]: 2.728
Gene expression BB730977 average [3]: −2.36
Gene expression BB743970 average [3]: 3.5588
Gene expression BB770528 average [3]: 2.0332
Gene expression BB781615 average [3]: 0.8952
Gene expression BC003284 average [3]: 2.093
Gene expression BC004827 average [3]: −3.639
Gene expression BC005552 average [3]: −1.342
Gene expression BC006713 average [3]: 1.2958
Gene expression BC010318 average [3]: −1.729
Gene expression BC012247 average [3]: 2.2674
Gene expression BC012955 average [3]: −2.241
Gene expression BC013893 average [3]: 1.864
Gene expression BC017615 average [3]: −3.947
Gene expression BC019379 average [3]: −2.7493
Gene expression BC019882 average [3]: 2.442
Gene expression BC021352 average [3]: 3.121
Gene expression BC022148 average [3]: 2.668
Gene expression BC025169 average [3]: −3.296
Gene expression BC026131 average [3]: −0.9986
Gene expression BC027026 average [3]: 2.873
Gene expression BC027121 average [3]: 2.742
Gene expression BC027185 average [3]: 2.115
Gene expression BE956581 average [3]: 3.68
Gene expression BF719766 average [3]: 2.112
Gene expression BG065754 average [3]: 1.3079
Gene expression BG066491 average [3]: −1.929
Gene expression BG076151 average [3]: 2.5119
Gene expression BG076333 average [3]: −1.87
Gene expression BG797099 average [3]: 2.6244
Gene expression BG967046 average [3]: 1.305
Gene expression BI651416 average [3]: 2.2069
Gene expression BI966443 average [3]: 4.094
Gene expression BM198879 average [3]: 1.928
Gene expression BM200015 average [3]: 1.702
Gene expression BM230508 average [3]: 2.571
Gene expression BM936480 average [3]: 2.006
Gene expression BQ174991 average [3]: −2.777
Gene expression L21027 average [3]: −4.612
Gene expression NM_007556 average [3]: −4.012
Gene expression NM_007980 average [3]: 2.9391
Gene expression NM_007987 average [3]: 2.2406
Gene expression NM_008522 average [3]: 5.9249
Gene expression NM_008935 average [3]: −3.601
Gene expression NM_009897 average [3]: 4.658
Gene expression NM_011075 average [3]: 3.096
Gene expression NM_011176 average [3]: 1.856
Gene expression NM_011316 average [3]: 2.256
Gene expression NM_012006 average [3]: 3.166
Gene expression NM_013642 average [3]: −0.7845
Gene expression NM_013738 average [3]: 2.749
Gene expression NM_013929 average [3]: 2.481
Gene expression NM_018881 average [3]: 2.279
Gene expression NM_019738 average [3]: −2.772
Gene expression NM_030697 average [3]: 3.958
Gene expression NM_053122 average [3]: −4.049
Gene expression NM_134147 average [3]: −2.8471
Gene expression NM_134188 average [3]: 0.4786
Gene expression X62701 average [3]: −1.3159
Gene expression data AF000969 (Cadps2) [3]: −2.406
Gene expression data AF022072 (Grb10) [3]: −3.6802
Gene expression data AF065917 (Lif) [3]: 1.033
Gene expression data AF297615 (Ggta1) [3]: 2.358
Gene expression data AI594683 (Dmn) [3]: 3.671
Gene expression data AI596632 (Ptprg /// LOC632664) [3]: −4.795
Gene expression data AI987929 (Ndrg1) [3]: −3.324
Gene expression data AK004419 (Fbxl17) [3]: −4.0931
Gene expression data AK005731 (1700007K13Rik) [3]: 5.7645
Gene expression data AK007766 (1810044A24Rik) [3]: −2.227
Gene expression data AK007854 (1810053B23Rik) [3]: 2.898
Gene expression data AK009736 (Gpr137b /// LOC664862 /// LOC673335) [3]: −1.056
Gene expression data AK010447 (Smyd3) [3]: −1.439
Gene expression data AK014608 (4632434l11Rik) [3]: 2.3711
Gene expression data AK019979 (2610528E23Rik) [3]: −3.317
Gene expression data AV095209 (Mthfd1l) [3]: −2.454
Gene expression data AV141095 (1110033M05Rik) [3]: −2.287
Gene expression data AV173571 (1700106N22Rik) [3]: −2.287
Gene expression data AV219418 (Ldhb) [3]: 2.873
Gene expression data AV223474 (Zdhhc14) [3]: −2.283
Gene expression data AV298304 (Homez) [3]: 1.9706
Gene expression data AV327248 (Zfp365 /// LOC674611) [3]: 4.258
Gene expression data AV377066 (9130221J18Rik) [3]: 2.462
Gene expression data AW240761 (Tbc1d5) [3]: −2.643
Gene expression data AW543460 (Pard3) [3]: −3.164
Gene expression data AW543723 [3]: 2.3145
Gene expression data AW986246 (Maoa) [3]: −0.2119
Gene expression data BB027848 (4732466D17Rik) [3]: 2.18
Gene expression data BB043558 (9230114K14Rik) [3]: 2.308
Gene expression data BB275142 (AW456874) [3]: 1.944
Gene expression data BB308836 (Ppm1l) [3]: −1.64
Gene expression data BB318221 (Zdhhc14) [3]: −2.706
Gene expression data BB463610 (4632434l11Rik) [3]: 2.535
Gene expression data BB526605 (Mipol1) [3]: −2.035
Gene expression data BB770528 (Rai2) [3]: 2.603
Gene expression data BB821363 (Scfd2) [3]: −2.485
Gene expression data BC004827 (Psat1) [3]: −2.4733
Gene expression data BC008626 (Icam1) [3]: 2.3005
Gene expression data BC010462 (BC010462) [3]: 1.163
Gene expression data BC012247 (Dcxr) [3]: 2.094
Gene expression data BC012260 (Psmf1) [3]: 2.237
Gene expression data BC015270 (Hist2h3c2) [3]: 0.6339
Gene expression data BC016073 (Cdkal1) [3]: −1.963
Gene expression data BC016265 (Ube2e2) [3]: −2.202
Gene expression data BC019882 (Acaa1b) [3]: 3.446
Gene expression data BC025501 (Aaas) [3]: 2.023
Gene expression data BC025837 (Sbk1) [3]: 1.652
Gene expression data BC025915 (Cova1) [3]: −1.619
Gene expression data BC026422 (Tgm1) [3]: 2.651
Gene expression data BF719766 (Thyn1) [3]: 2.045
Gene expression data BG065754 (Ccng1) [3]: 1.179
Gene expression data BG066903 (Kif16b) [3]: −1.047
Gene expression data BG069873 (Gnb1l) [3]: 2.175
Gene expression data BG070887 (Gtdc1) [3]: −2.356
Gene expression data BG076151 (Ppm1d) [3]: 2.238
Gene expression data BG261907 (Large) [3]: −3.876
Gene expression data BI651416 (Cdc42bpg) [3]: 2.482
Gene expression data BI660702 (Ell3) [3]: 3.742
Gene expression data BM198879 (Ercc5) [3]: 2.012
Gene expression data BM230508 (A030007D23Rik) [3]: 2.556
Gene expression data NM_007987 (Fas) [3]: 2.6645
Gene expression data NM_008522 (Ltf) [3]: 3.9908
Gene expression data NM_008576 (Abcc1) [3]: −1.312
Gene expression data NM_011176 (St14) [3]: 2.078
Gene expression data NM_011316 (Saa4) [3]: 2.611
Gene expression data NM_012006 (Acot1) [3]: 3.959
Gene expression data NM_013866 (Zfp385) [3]: 2.3
Gene expression data NM_018770 (Igsf4a) [3]: −2.054
Gene expression data NM_021451 (Pmaip1) [3]: 2.681
Gene expression data NM_025770 (Atg10) [3]: −1.329
Gene expression data NM_028803 (Gbe1) [3]: −1.8898
Gene expression data NM_030697 (Ankrd47) [3]: 3.874
Gene expression data NM_053168 (Trim11) [3]: 1.4821
Gene expression data NM_134188 (Acot2) [3]: −0.06593
Gene expression data Y15910 (Diap2) [3]: −2.813
